In the experiment the target is T1, canine TRPM8 (Canis lupus familiaris, UniProt Q1A7N1).
T1 construct: expressed in transfected cells
Kind of experiment: In Vitro Canine TRPM8 Functional Assay (Ca2+ fluorescence, icilin activation). The class given is cell-based. Particulars: for inhibition at 0.2 µM: HEK293, 0.2 μM compound; for IC50: HEK293 cells stably expressing canine TRPM8, icilin activation, Ca2+ fluorescence; for % Inh @ 0.2 μM: 0.2 μM compound; for inhibition at 0.5 µM: HEK293, 0.5 μM compound; for inhibition at 1 µM: HEK293, 1 μM compound; for % Inh @ 0.5 μM: 0.5 μM compound. In short, it runs like this: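 HEK293 cells stably expressing canine TRPM8, loaded with Calcium 3 dye; compounds added 5 min before icilin at a concentration giving ~80% maximal response. Peak icilin-evoked Ca2+ fluorescence, basal-subtracted and normalised to maximal response, fitted by sigmoidal nonlinear regression; quadruplicate wells.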

Setting [1] is: canine TRPM8 HEK293, icilin, 0.2 µM.
Setting [2] is: canine TRPM8 HEK293, icilin, 0.5 µM.

Values joined by “and” are separate entries in the source; they are usually repeats but may differ in a detail not shown here. Equal values may be shown once.

T1 sequence (Q1A7N1 1-1104): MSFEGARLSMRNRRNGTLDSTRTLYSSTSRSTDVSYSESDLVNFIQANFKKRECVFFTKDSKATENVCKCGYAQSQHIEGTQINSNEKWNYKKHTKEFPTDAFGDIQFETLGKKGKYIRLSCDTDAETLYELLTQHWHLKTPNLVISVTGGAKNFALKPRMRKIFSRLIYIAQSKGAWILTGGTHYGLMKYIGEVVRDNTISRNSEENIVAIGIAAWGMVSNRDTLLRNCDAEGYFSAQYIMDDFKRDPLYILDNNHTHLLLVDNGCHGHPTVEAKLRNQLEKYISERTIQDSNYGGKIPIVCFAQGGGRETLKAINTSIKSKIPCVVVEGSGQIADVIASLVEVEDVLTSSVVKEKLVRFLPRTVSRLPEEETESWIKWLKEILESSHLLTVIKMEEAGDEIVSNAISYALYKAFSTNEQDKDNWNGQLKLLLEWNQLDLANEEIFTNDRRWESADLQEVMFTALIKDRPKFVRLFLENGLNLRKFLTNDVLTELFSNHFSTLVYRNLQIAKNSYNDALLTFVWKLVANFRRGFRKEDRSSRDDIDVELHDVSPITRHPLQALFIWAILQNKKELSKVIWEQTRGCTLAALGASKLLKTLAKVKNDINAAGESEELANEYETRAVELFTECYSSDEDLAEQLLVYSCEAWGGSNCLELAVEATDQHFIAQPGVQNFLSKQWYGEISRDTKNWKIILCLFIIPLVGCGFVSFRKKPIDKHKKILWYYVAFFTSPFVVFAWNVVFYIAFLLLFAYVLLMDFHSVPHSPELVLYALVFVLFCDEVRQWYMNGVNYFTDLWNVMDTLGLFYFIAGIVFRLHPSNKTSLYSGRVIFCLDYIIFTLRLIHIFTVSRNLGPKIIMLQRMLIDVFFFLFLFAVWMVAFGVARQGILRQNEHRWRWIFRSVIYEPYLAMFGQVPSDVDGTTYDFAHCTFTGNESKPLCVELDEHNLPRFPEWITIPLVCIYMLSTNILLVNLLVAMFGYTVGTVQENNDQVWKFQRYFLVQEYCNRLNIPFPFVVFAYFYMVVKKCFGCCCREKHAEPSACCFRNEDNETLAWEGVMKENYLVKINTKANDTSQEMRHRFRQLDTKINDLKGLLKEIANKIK

As usually defined, the inhibition is the drop in the measured response relative to a control, in per cent. In general, IC50 refers to the concentration at which inhibition is half-maximal. Compound `Cc1c(C(Cc2ccccc2F)C(=O)N2Cc3ccccc3C2)sc2ccccc12` (centres unmarked) [Cpd 179] gave an IC50 of 38 nM. In addition, the inhibition at 0.2 µM (canine TRPM8 HEK293, icilin) is 96%. For the compound `O=C(C(Nc1ccccc1F)c1cncc2ccccc12)N1CCCC1c1ccccc1F` (single isomer, unassigned) [Cpd 332], the “% Inh @ 0.2 μM” value under setting [1] is reported as 47%. `O=C(C(Nc1c(F)cccc1F)c1ccc(Cl)cc1)N1CCCC1c1ccccc1` (centres unmarked) [Cpd 146] came in with an IC50 of 12 nM. For the same compound, the inhibition at 0.5 µM (canine TRPM8 HEK293, icilin) is 99%. For `O=C(C(Nc1ccccc1F)c1ccc(N2CCOCC2)nc1)N1CCCC1c1ccccc1F` (single isomer, unassigned) [Cpd 360], under setting [1], the “% Inh @ 0.2 μM” value is reported as 43%. The compound `O=C(O)c1ccc(C2CCCN2C(=O)C(Nc2ccccc2F)c2ccc(C(F)(F)F)cc2)cc1` (centres unmarked) [Cpd 222] registered an IC50 of 66 nM. The inhibition at 0.2 µM (canine TRPM8 HEK293, icilin) is 93%. In turn, `CC(C)(C)c1ccc(C(Nc2ccccc2)C(=O)N2CCc3ccccc32)cc1` (centres unmarked) [Cpd 15] registered an IC50 of 257 nM. Further, for the setting “canine TRPM8 HEK293, icilin”, the inhibition at 1 µM turned out to be 94.8%. Compound `O=C(C(Nc1ccccc1F)c1ccc(C(F)(F)F)cc1)N1CCCC1c1ccccc1` (racemic) [Cpd 69] had an IC50 of 5 nM. The inhibition at 0.5 µM (canine TRPM8 HEK293, icilin) amounted to 102%. The compound `O=C(C(Nc1ccccc1)c1ccc(C(F)(F)F)cc1)N1CCCC1c1ccccc1F` (single isomer, unassigned) [Cpd 48] registered an IC50 of 219 nM. The “% Inh @ 0.5 μM” value under setting [2] is listed as 85.869%.

For `CC(=O)Nc1cccc(C2CCCN2C(=O)C(Nc2ccccc2F)c2ccc(C(F)(F)F)cc2)c1` (centres unmarked) [Cpd 316], the IC50 is 26 nM. The inhibition at 0.2 µM (canine TRPM8 HEK293, icilin) was found to be 102%. In the case of `O=C(C(Nc1ccccc1F)c1ccc(C(F)(F)F)cc1)N1CCCC1c1ccccc1Cl` (single isomer, unassigned) [Cpd 189], the IC50 was determined as 9 nM. Moreover, the inhibition at 0.2 µM (canine TRPM8 HEK293, icilin) is 98%. On to `O=C(C(Nc1c(F)cccc1F)c1ccc(CO)cc1)N1CCC[C@H]1c1ccccc1F` (stereo partly drawn) [Cpd 219, 2-(2,6-Difluoro-phenylamino)-1-[(2S)-2-(2-fluoro-phenyl)-pyrrolidin-1-yl]-2-(4-hydroxymethyl-phenyl)-ethanone], for which the IC50 came to 68 nM. Also, the inhibition at 0.2 µM (canine TRPM8 HEK293, icilin) was 89%. Turning to `O=C(C(Nc1ccccc1Cl)c1ccc(C(F)(F)F)cc1)N1CCc2ccccc21` (racemic) [Cpd 37], the “% Inh @ 0.5 μM” value (canine TRPM8 HEK293, icilin) came out at 49.878%. Turning to `CS(=O)(=O)c1ccc(C(Nc2ccccc2F)C(=O)N2CCCC2c2ccccc2F)cc1` (mixture of isomers) [Cpd 224], for the setting “canine TRPM8 HEK293, icilin”, the “% Inh @ 0.2 μM” value is listed as 55%.

In the case of `CCOC(=O)c1ccc(C(Nc2ccccc2F)C(=O)N2CCC[C@H]2c2ccccc2F)cc1` (mixture of isomers) [Cpd 182], the IC50 was determined as 13 nM. For the same compound, the inhibition at 0.2 µM (canine TRPM8 HEK293, icilin) was 102%. `CN(c1ccccc1F)C(C(=O)N1CCCC1c1ccccc1F)c1ccc(C(F)(F)F)cc1` (centres unmarked) [Cpd 233]: the “% Inh @ 0.2 μM” value (canine TRPM8 HEK293, icilin) is 10%. As for `O=C(C(Nc1ccccc1F)c1ccc(-n2ccnc2)cc1)N1CCCC1c1ccccc1Cl` (centres unmarked) [Cpd 342], the IC50 was 28 nM. Besides, the inhibition at 0.2 µM (canine TRPM8 HEK293, icilin) is 100%. Regarding `O=C(C(Nc1ccccc1F)c1ccc(Br)cc1)N1CCCc2ccccc21` (centres unmarked) [Cpd 365], half-maximal inhibition (IC50) was put at 30 nM. Besides, the inhibition at 0.2 µM (canine TRPM8 HEK293, icilin) was 94%. `O=C(C(Nc1ccccc1)c1ccc(Br)cc1)N1CCCC1c1ccccc1Cl` (centres unmarked) [Cpd 67] returned an IC50 of 42 nM. Also, the inhibition at 0.5 µM (canine TRPM8 HEK293, icilin) was 102%. The compound `O=C(C(Nc1ccccc1)c1ccc(C(F)(F)F)cc1)N1CCCCC1c1ccccc1` (centres unmarked) [Cpd 44] gave an IC50 of 57.6 nM. For the same compound, the inhibition at 0.5 µM (canine TRPM8 HEK293, icilin) was found to be 101%. `COC(=O)C1CCC(c2ccccc2)N1C(=O)C(Nc1ccccc1F)c1ccc(Br)cc1` (single isomer, unassigned) [Cpd 208] displayed an IC50 of 9 nM. Where the note is “canine TRPM8 HEK293, icilin”, the inhibition at 0.2 µM was 101%. For the compound `O=C(C(CNc1ccccc1)c1ccc(C(F)(F)F)cc1)N1CCCC1c1ccccc1` (mixture of isomers) [Cpd 94], the IC50 was determined as 162 nM. In addition, the “% Inh @ 0.5 μM” value under setting [2] was found to be 98%.

On to `O=C(C(Nc1ccccc1)c1ccc(C(F)(F)F)cc1)N1CCCC1c1ccccc1Cl` (single isomer, unassigned) [Cpd 22], for which the IC50 is 378 nM. Under setting [2], the “% Inh @ 0.5 μM” value is 102.36%. For `O=C(C(Nc1ccccc1F)c1ccc(C(F)(F)F)cc1)N1CCCC1c1ccccc1F` (single isomer, unassigned) [Cpd 154], in that order: 104 nM and 97.552%. With `O=C(C(Nc1ccccc1F)c1ccc(C(F)(F)F)cc1)N1Cc2ccccc2C1` (centres unmarked) [Cpd 64], the IC50 is 22 nM and 25 nM. In addition, for the setting “canine TRPM8 HEK293, icilin”, the inhibition at 0.2 µM is 100% and the inhibition at 0.5 µM was 102%.

In turn, `O=C(C(Nc1ccccc1)c1ccc(Cl)cc1)N1CCCC1c1ccccc1F` (centres unmarked) [Cpd 142] displayed an IC50 of 18 nM. Moreover, under “canine TRPM8 HEK293, icilin”, the inhibition at 0.5 µM worked out at 97%.

With `O=C(C(Nc1ccccc1)c1ccccn1)N1CCCC1c1ccccc1F` (racemic) [Cpd 218], the “% Inh @ 0.2 μM” value under setting [1] was 49%.

`CC(C)(C)c1ccc(C(Nc2ccccc2)C(=O)N2CCCC2c2cccnc2)cc1` (centres unmarked) [Cpd 5] came in with an IC50 of 99.5 nM. Besides, where the note is “canine TRPM8 HEK293, icilin”, the inhibition at 1 µM came out at 102%. `O=C(C(Nc1c(F)cccc1F)c1ccc(Br)cc1)N1CCCC1c1ccccc1F` (single isomer, unassigned) [Cpd 162]: the IC50 came out at 5.45 nM. Besides, the “% Inh @ 0.2 μM” value under setting [1] was found to be 100%. Under setting [2], the “% Inh @ 0.5 μM” value was found to be 99%.

`O=C(C(Nc1ccccc1F)c1ccc(C(F)(F)F)cc1)N1CCc2ccccc2C1` (centres unmarked) [Cpd 65] registered an IC50 of 48 nM. The inhibition at 0.5 µM (canine TRPM8 HEK293, icilin) was found to be 100%.

`Cc1cccc2c1N(C(=O)C(Nc1ccccc1)c1ccc(C(F)(F)F)cc1)CC2` (centres unmarked) [Cpd 27] registered an IC50 of 316 nM. The inhibition at 0.5 µM (canine TRPM8 HEK293, icilin) worked out at 93.2%. For `COc1ccccc1C1CCCN1C(=O)C(Nc1ccccc1F)c1ccc(Cl)cc1` (centres unmarked) [Cpd 111], in that order: 13 nM and 96%. With `O=C(C(c1ccc(C(F)(F)F)cc1)N1CCc2ccccc21)N1CCC[C@H]1c1cccnc1` (mixture of isomers) [Cpd 275], the IC50 stood at 21 nM. Also, where the note is “canine TRPM8 HEK293, icilin”, the inhibition at 0.2 µM was found to be 94%. Take `O=C(C(Nc1ccccc1F)c1ccc(Br)cc1)N1CCCC1c1cccnc1` (racemic) [Cpd 269]: the “% Inh @ 0.2 μM” value (canine TRPM8 HEK293, icilin) turned out to be 47%. Same read-out and setting: under `O=C(C(Nc1ccccc1F)c1ccc2c(c1)CCO2)N1CCCC1c1cccnc1` (racemic) [Cpd 282] stands 17%.

Compound `COc1ccc(NC(C(=O)N2CCCC2c2ccccc2)c2ccc(Cl)cc2)cc1` (centres unmarked) [Cpd 139] showed an IC50 of 116 nM. Further, the inhibition at 0.5 µM (canine TRPM8 HEK293, icilin) came to 81%. With `O=C(C(Nc1ccccc1F)c1ccc(C(F)(F)F)cc1)N1CCC[C@H]1c1cccc(F)c1` (mixture of isomers) [Cpd 186], the IC50 is 18 nM. Also, the inhibition at 0.2 µM (canine TRPM8 HEK293, icilin) is 98%. For `CN(C)c1cccc([C@H]2CCCN2C(=O)C(Nc2ccccc2F)c2ccc(C(F)(F)F)cc2)c1` (mixture of isomers) [Cpd 348], in that order: 22 nM and 100%. `CC(=O)Nc1ccc(C2CCCN2C(=O)C(Nc2ccccc2F)c2ccc(C(F)(F)F)cc2)cc1` (centres unmarked) [Cpd 317] had an IC50 of 3 nM. The inhibition at 0.2 µM (canine TRPM8 HEK293, icilin) was 102%. Taken in the same sequence, the figures for `O=C(C(Nc1ccccc1F)c1ccc(C(F)(F)F)cc1)N1CCCC1c1cncc(Br)c1` (centres unmarked) [Cpd 344] were 44 nM and 98%. Taken in the same sequence, the figures for `O=C(N1CCCC1c1ccccc1)C1(c2ccc(C(F)(F)F)cc2)CCc2ccccc2N1` (centres unmarked) [Cpd 194, (2-Phenyl-pyrrolidin-1-yl)-[2-(4-trifluoromethyl-phenyl)-1,2,3,4-tetrahydro-quinolin-2-yl]-methanone] were 160 nM and 70%. Turning to `O=C(C(Nc1ccccc1F)c1ccc(C(F)(F)F)cc1)N1CCCC1c1cccc(F)c1` (single isomer, unassigned) [Cpd 185], the IC50 is 150 nM. Further, the inhibition at 0.2 µM (canine TRPM8 HEK293, icilin) is 82%. `O=C(C(Nc1ccc(F)cc1F)c1ccc(Cl)cc1)N1CCCC1c1ccccc1Cl` (centres unmarked) [Cpd 122] displayed an IC50 of 147 nM. Besides, under “canine TRPM8 HEK293, icilin”, the inhibition at 0.5 µM came out at 96%.

In the case of `O=C(C(Nc1ccccc1)c1cccnc1)N1CCCC1c1ccccc1F` (centres unmarked) [Cpd 214, 1-[2-(2-Fluoro-phenyl)-pyrrolidin-1-yl]-2-phenylamino-2-pyridin-3-yl-ethanone], the inhibition at 0.2 µM (canine TRPM8 HEK293, icilin) turned out to be 58%. With `CN(C)c1ccc(C2CCCN2C(=O)C(Nc2ccccc2F)c2ccc(Br)cc2)cc1` (centres unmarked) [Cpd 271], it took 89 nM to reach half-maximal inhibition (IC50). Where the note is “canine TRPM8 HEK293, icilin”, the inhibition at 0.2 µM came out at 90%. The compound `O=C(C(Nc1c(F)cccc1F)c1ccc(Cl)cc1)N1CCCC1c1ccccc1Cl` (centres unmarked) [Cpd 143] yielded a half-maximal inhibitory concentration (IC50) of 25 nM. In addition, where the note is “canine TRPM8 HEK293, icilin”, the inhibition at 0.5 µM is 101%. As to `CC(C)(C)c1ccc(C(Nc2ccccc2)C(=O)N2CCCC2c2ccccc2Cl)cc1` (single isomer, unassigned) [Cpd 2], the IC50 stood at 72.6 nM. Also, under “1 μM compound, canine TRPM8 HEK293, icilin, 1 µM”, the “% Inh @ 1 μM” value stood at 100.93%. `O=C(C(CNc1ccccc1)c1ccc(C(F)(F)F)cc1)N1CCCC1c1ccccc1F` (centres unmarked) [Cpd 103] came in with an IC50 of 182 nM. Besides, the inhibition at 0.5 µM (canine TRPM8 HEK293, icilin) is 75%.

The compound `Cc1nc2ccc(C(Nc3ccccc3F)C(=O)N3CCCC3c3ccccc3F)cc2s1` (single isomer, unassigned) [Cpd 341] showed an IC50 of 24 nM. In addition, under setting [1], the “% Inh @ 0.2 μM” value was 100%. `O=C(O)c1cccc(C2CCCN2C(=O)C(Nc2ccccc2F)c2ccc(C(F)(F)F)cc2)c1` (mixture of isomers) [Cpd 223] came in with an IC50 of 40 nM. Under “canine TRPM8 HEK293, icilin”, the “% Inh @ 0.2 μM” value is 97%. Turning to `COC(=O)C1CCC(c2ccccc2)N1C(=O)C(Nc1ccccc1F)c1ccc(Br)cc1` (centres unmarked) [Cpd 196], under setting [1], the “% Inh @ 0.2 μM” value is 41%.

The values are drawn from US8143259B2, “Cold menthol receptor antagonists” (Janssen Pharmaceutica, NV, priority 2008, dated 2012).
